Molecular target: Recombinant KAT6A/MOZ (488-778) protein (Homo sapiens (Human), UniProt Q92794)
Test: KAT6A AlphaLISA Inhibition Screening Assay
Assay type: biochemical
Details: for inhibition at 1 µM: read-out: Average Kat6A % inhibition @ 1 μM; for inhibition at 1 µM / Average Kat6A % inhibition @ 1 μM: 1 μM test compound; for inhibition at 10 µM: read-out: Average Kat6A % inhibition @ 10 μM; for inhibition at 10 µM / Average Kat6A % inhibition @ 10 μM: 10 μM test compound
Method in brief: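 25 nM KAT6A (488-778) pre-incubated 60 or 10 min with compound (10-point, 3-fold from 10 μM), then 400 nM acetyl-CoA and 200 nM biotin-H3(1-21) peptide added for 120 min at RT in pH 8.0 Tris buffer with 330 nM TSA. Acetylation read by AlphaLISA (anti-acetyl-lysine acceptor/streptavidin donor beads); % inhibition vs vehicle.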

Chain of Recombinant KAT6A/MOZ (488-778) protein (Q92794 488-778): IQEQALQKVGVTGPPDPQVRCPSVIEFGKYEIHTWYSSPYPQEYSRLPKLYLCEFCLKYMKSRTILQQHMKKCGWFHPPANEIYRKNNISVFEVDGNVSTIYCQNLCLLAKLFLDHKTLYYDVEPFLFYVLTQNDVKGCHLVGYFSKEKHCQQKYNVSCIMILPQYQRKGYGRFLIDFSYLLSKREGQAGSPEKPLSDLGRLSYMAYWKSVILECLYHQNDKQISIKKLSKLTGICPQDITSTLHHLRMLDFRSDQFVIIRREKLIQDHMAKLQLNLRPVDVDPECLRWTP

Row | Structure (SMILES) | inhibition at 1 µM [%] | inhibition at 10 µM [%] | Average Kat6A % inhibition @ 1 μM [%] | Average Kat6A % inhibition @ 10 μM [%]
1 | C=C(F)C(=O)NCc1cnn(Cc2cc(OC)c3c(NS(=O)(=O)c4cc(CC)ccc4OCCC#N)noc3c2)c1 [Syn. Ex. 84, N-((1-((3-((2-(2-cyanoethoxy)-5-ethylphenyl)sulfonamido)-4-methoxybenzo[d]isoxazol-6-yl)methyl)-1H-pyrazol-4-yl)methyl)-2-fluoroacrylamide] | 100 | 100 |  | 
2 | C=C(F)C(=O)NCc1cnn(Cc2cc(OC)c3c(NS(=O)(=O)c4c(OC)ccnc4OC)noc3c2)c1 [Syn. Ex. 87, N-((1-((3-((2,4-dimethoxypyridine)-3-sulfonamido)-4-methoxybenzo[d]isoxazol-6-yl)methyl)-1H-pyrazol-4-yl)methyl)-2-fluoroacrylamide] |  |  | 95 | 100
3 | C=C(F)C(=O)NCc1cnn(Cc2cc(OC)c3c(NS(=O)(=O)c4cc(CC)ccc4OCc4ccccc4)noc3c2)c1 [Syn. Ex. 92, N-((1-((3-((2-(benzyloxy)-5-ethylphenyl)sulfonamido)-4-methoxybenzo[d]isoxazol-6-yl)methyl)-1H-pyrazol-4-yl)methyl)-2-fluoroacrylamide] | 100 | 100 |  | 
4 | C=C(F)C(=O)NCc1cnn(Cc2cc(OC)c3c(NS(=O)(=O)c4cc(CC)ccc4OCc4ccnc(OC)c4)noc3c2)c1 [Syn. Ex. 94, N-((1-((3-((5-ethyl-2-((2-methoxypyridin-4-yl)methoxy)phenyl)sulfonamido)-4-methoxybenzo[d]isoxazol-6-yl)methyl)-1H-pyrazol-4-yl)methyl)-2-fluoroacrylamide] | 100 | 100 |  | 
5 | C=C(F)C(=O)NCc1cnn(Cc2cc3onc(NS(=O)(=O)c4cc(CC)ccc4OC)c3c3c2CCCO3)c1 [Syn. Ex. 96, N-((1-((9-((5-ethyl-2-methoxyphenyl)sulfonamido)-3,4-dihydro-2H-chromeno[8,7-d]isoxazol-5-yl)methyl)-1H-pyrazol-4-yl)methyl)-2-fluoroacrylamide] | 100 | 100 |  | 
6 | CCc1ccc(OC)c(S(=O)(=O)Nc2noc3cc(Cn4cc(CNC(=O)OC)cn4)c4c(c23)OCCC4)c1 [Syn. Ex. 97, methyl ((1-((9-((5-ethyl-2-methoxyphenyl)sulfonamido)-3,4-dihydro-2H-chromeno[8,7-d]isoxazol-5-yl)methyl)-1H-pyrazol-4-yl)methyl)carbamate] | 100 | 100 |  | 
7 | CCc1ccc(OC)c(S(=O)(=O)Nc2noc3cc(Oc4ncc(CN[S+]([O-])C(C)(C)C)o4)cc(OC)c23)c1 (stereo not drawn) [Syn. Ex. 98, N-(6-((5-(((tert-Butylsulfinyl)amino)methyl)oxazol-2-yl)oxy)-4-methoxybenzo[d]isoxazol-3-yl)-5-ethyl-2-methoxybenzenesulfonamide] | 78 | 92 |  | 
8 | C=C(F)C(=O)NCc1cnc(Oc2cc(OC)c3c(NS(=O)(=O)c4cc(CC)ccc4OC)noc3c2)o1 [Syn. Ex. 99, N-((2-((3-((5-ethyl-2-methoxyphenyl)sulfonamido)-4-methoxybenzo[d]isoxazol-6-yl)oxy)oxazol-5-yl)methyl)-2-fluoroacrylamide] | 91 | 100 |  | 
9 | CCc1ccc(OC)c(S(=O)(=O)Nc2noc3cc(Oc4ncc(CNC(=O)OC)o4)cc(OC)c23)c1 [Syn. Ex. 100, methyl ((2-((3-((5-ethyl-2-methoxyphenyl)sulfonamido)-4-methoxybenzo[d]isoxazol-6-yl)oxy)oxazol-5-yl)methyl)carbamate] | 92 | 100 |  | 
10 | C#CC(=O)NCc1cnc(Oc2cc(OC)c3c(NS(=O)(=O)c4cc(CC)ccc4OC)noc3c2)s1 [Syn. Ex. 103, N-((2-((3-((5-ethyl-2-methoxyphenyl)sulfonamido)-4-methoxybenzo[d]isoxazol-6-yl)oxy)thiazol-5-yl)methyl)propiolamide] | 97 | 99 |  | 
11 | CCc1ccc(OC)c(S(=O)(=O)Nc2noc3cc(Oc4nc(CNC(=O)OC)cs4)cc(OC)c23)c1 [Syn. Ex. 104, methyl ((2-((3-((5-ethyl-2-methoxyphenyl)sulfonamido)-4-methoxybenzo[d]isoxazol-6-yl)oxy)thiazol-4-yl)methyl)carbamate] | 25 | 92 |  | 
12 | C=C(F)C(=O)NCc1csc(Oc2cc(OC)c3c(NS(=O)(=O)c4cc(CC)ccc4OC)noc3c2)n1 [Syn. Ex. 105, N-((2-((3-((5-ethyl-2-methoxyphenyl)sulfonamido)-4-methoxybenzo[d]isoxazol-6-yl)oxy)thiazol-4-yl)methyl)-2-fluoroacrylamide] | 68 | 99 |  | 
13 | CCc1ccc(OC)c(S(=O)(=O)Nc2noc3cc(Oc4cccc(CNC(=O)OC)n4)cc(OC)c23)c1 [Syn. Ex. 106, methyl ((6-((3-((5-ethyl-2-methoxyphenyl)sulfonamido)-4-methoxybenzo[d]isoxazol-6-yl)oxy)pyridin-2-yl)methyl)carbamate] | 10 | 44 |  | 
14 | C#CC(=O)Nc1ccc(Oc2cc(OC)c3c(NS(=O)(=O)c4cc(CC)ccc4OC)noc3c2)nc1 [Syn. Ex. 108, N-(6-((3-((5-ethyl-2-methoxyphenyl)sulfonamido)-4-methoxybenzo[d]isoxazol-6-yl)oxy)pyridin-3-yl)propiolamide] | 99 | 100 |  | 
15 | CCc1ccc(OC)c(S(=O)(=O)Nc2noc3cc(Oc4ccc(N)cn4)cc(OC)c23)c1 [Syn. Ex. 109, N-(6-((5-aminopyridin-2-yl)oxy)-4-methoxybenzo[d]isoxazol-3-yl)-5-ethyl-2-methoxybenzenesulfonamide] | 95 | 98 |  | 
16 | CCc1ccc(OC)c(S(=O)(=O)Nc2noc3cc(Oc4cc(CNC(=O)OC)ccn4)cc(OC)c23)c1 [Syn. Ex. 110, methyl ((2-((3-((5-ethyl-2-methoxyphenyl)sulfonamido)-4-methoxybenzo[d]isoxazol-6-yl)oxy)pyridin-4-yl)methyl)carbamate] | 9 | 58 |  | 
17 | C=C(F)C(=O)NCc1ccnc(Oc2cc(OC)c3c(NS(=O)(=O)c4cc(CC)ccc4OC)noc3c2)c1 [Syn. Ex. 111, N-((2-((3-((5-ethyl-2-methoxyphenyl)sulfonamido)-4-methoxybenzo[d]isoxazol-6-yl)oxy)pyridin-4-yl)methyl)-2-fluoroacrylamide] | 0 | 54 |  | 

The remaining lines, values ahead:

Row | inhibition at 1 µM [%] | inhibition at 10 µM [%] | Average Kat6A % inhibition @ 1 μM [%] | Average Kat6A % inhibition @ 10 μM [%] | Structure (SMILES)
18 | 98 | 99 |  |  | CCc1ccc(OCCC#N)c(S(=O)(=O)Nc2noc3cc(Cn4cc(CNC(=O)OC)cn4)cc(OC)c23)c1 [Syn. Ex. 83, methyl ((1-((3-((2-(2-cyanoethoxy)-5-ethylphenyl)sulfonamido)-4-methoxybenzo[d]isoxazol-6-yl)methyl)-1H-pyrazol-4-yl)methyl)carbamate]
19 |  |  | 91 | 95 | C#CC(=O)NCc1cnn(Cc2cc(OC)c3c(NS(=O)(=O)c4c(OC)ccnc4OC)noc3c2)c1 [Syn. Ex. 85, N-((1-((3-((2,4-dimethoxypyridine)-3-sulfonamido)-4-methoxybenzo[d]isoxazol-6-yl)methyl)-1H-pyrazol-4-yl)methyl)propiolamide]
20 |  |  | 86 | 100 | COC(=O)NCc1cnn(Cc2cc(OC)c3c(NS(=O)(=O)c4c(OC)ccnc4OC)noc3c2)c1 [Syn. Ex. 86, methyl ((1-((3-((2,4-dimethoxypyridine)-3-sulfonamido)-4-methoxybenzo[d]isoxazol-6-yl)methyl)-1H-pyrazol-4-yl)methyl)carbamate]
21 | 99 | 98 |  |  | COC(=O)NCc1cnn(Cc2cc(OC)c3c(NS(=O)(=O)c4cc(C)ccc4OC)noc3c2)c1 [Syn. Ex. 88, methyl ((1-((4-methoxy-3-((2-methoxy-5-methylphenyl)sulfonamido)benzo[d]isoxazol-6-yl)methyl)-1H-pyrazol-4-yl)methyl)carbamate]
22 | 100 | 100 |  |  | C=C(F)C(=O)NCc1cnn(Cc2cc(OC)c3c(NS(=O)(=O)c4cc(C)ccc4OC)noc3c2)c1 [Syn. Ex. 89, 2-fluoro-N-((1-((4-methoxy-3-((2-methoxy-5-methylphenyl)sulfonamido)benzo[d]isoxazol-6-yl)methyl)-1H-pyrazol-4-yl)methyl)acrylamide]
23 | 99 | 100 |  |  | CCc1ccc(OC)c(S(=O)(=O)Nc2noc3cc(Cn4cc(CNC(N)=O)cn4)cc(OC)c23)c1 [Syn. Ex. 90, 5-ethyl-2-methoxy-N-(4-methoxy-6-((4-(ureidomethyl)-1H-pyrazol-1-yl)methyl)benzo[d]isoxazol-3-yl)benzenesulfonamide]
24 | 99 | 100 |  |  | CCc1ccc(OC)c(S(=O)(=O)Nc2noc3cc(Cn4cc(CNC(=O)NC)cn4)cc(OC)c23)c1 [Syn. Ex. 91, 5-ethyl-2-methoxy-N-(4-methoxy-6-((4-((3-methylureido)methyl)-1H-pyrazol-1-yl)methyl)benzo[d]isoxazol-3-yl)benzenesulfonamide]
25 | 90 | 98 |  |  | CCc1ccc(OCc2ccccc2)c(S(=O)(=O)Nc2noc3cc(Cn4cc(CNC(=O)OC)cn4)cc(OC)c23)c1 [Syn. Ex. 93, methyl ((1-((3-((2-(benzyloxy)-5-ethylphenyl)sulfonamido)-4-methoxybenzo[d]isoxazol-6-yl)methyl)-1H-pyrazol-4-yl)methyl)carbamate]
26 | 100 | 100 |  |  | CCc1ccc(OCc2ccnc(OC)c2)c(S(=O)(=O)Nc2noc3cc(Cn4cc(CNC(=O)OC)cn4)cc(OC)c23)c1 [Syn. Ex. 95, methyl ((1-((3-((5-ethyl-2-((2-methoxypyridin-4-yl)methoxy)phenyl)sulfonamido)-4-methoxybenzo[d]isoxazol-6-yl)methyl)-1H-pyrazol-4-yl)methyl)carbamate]

Reference: patent publication US20250122182A1 (Isosterix, Inc., priority 2023, published 2025)
